Reference: ChEMBL document CHEMBL1147408, “Modulation of selective serotonin reuptake inhibitor and 5-HT1A antagonist activity in 8-aza-bicyclo[3.2.1]octane derivatives of 2,3-dihydro-1,4-benzodioxane” (Bioorg Med Chem Lett, 2004)

What was measured:
[1] = molecular target: T1, 5-hydroxytryptamine receptor 1A (Homo sapiens, UniProt P08908); assay: (§1) Agonistic activity of compound towards 5-hydroxytryptamine 1A receptor was evaluated by [35S]GTP-gamma-S, stimulated cAMP assay; type: functional
T1 sequence (P08908 whole entry): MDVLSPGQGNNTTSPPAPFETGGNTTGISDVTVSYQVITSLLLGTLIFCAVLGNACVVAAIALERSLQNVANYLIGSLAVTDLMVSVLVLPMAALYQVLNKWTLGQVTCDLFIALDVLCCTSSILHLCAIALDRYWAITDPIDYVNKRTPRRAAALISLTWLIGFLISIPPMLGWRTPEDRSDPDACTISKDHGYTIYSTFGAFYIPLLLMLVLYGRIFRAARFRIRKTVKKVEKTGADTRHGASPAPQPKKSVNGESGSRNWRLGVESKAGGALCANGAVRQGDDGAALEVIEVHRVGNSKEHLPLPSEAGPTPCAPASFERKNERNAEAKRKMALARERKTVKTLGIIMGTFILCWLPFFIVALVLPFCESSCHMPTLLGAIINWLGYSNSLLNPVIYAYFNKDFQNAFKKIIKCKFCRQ

[2] = molecular target: T1, 5-hydroxytryptamine receptor 1A; assay: Agonistic activity of compound towards 5-hydroxytryptamine 1A receptor was evaluated by forskolin stimulated cAMP assay; type: functional
[3] = molecular target: T1, 5-hydroxytryptamine receptor 1A; assay: Displacement of [3H]8-OH-DPAT from human 5-hydroxytryptamine 1A receptor expressed in CHO cells; type: cell-based
[4] = molecular target: T2, 5-hydroxytryptamine receptor 1A (Homo sapiens) (UniProt P08908); assay: as §1; type: functional
T2 sequence (whole entry): T1 sequence (P08908 whole entry)

[5] = molecular target: Sodium-dependent serotonin transporter (Rattus norvegicus) (UniProt P31652); assay: Inhibition of serotonin transporter; set-up: concentration or dose not given beside the values; conditions: concentration not given here
[6] = molecular target: T3, Adrenergic receptor alpha-1 (Rattus norvegicus, UniProt P15823+P23944+P43140); assay: Displacement of [3H]prazosin from alpha-1 adrenergic receptor; type: protein assay
T3 sequence (P15823 whole entry): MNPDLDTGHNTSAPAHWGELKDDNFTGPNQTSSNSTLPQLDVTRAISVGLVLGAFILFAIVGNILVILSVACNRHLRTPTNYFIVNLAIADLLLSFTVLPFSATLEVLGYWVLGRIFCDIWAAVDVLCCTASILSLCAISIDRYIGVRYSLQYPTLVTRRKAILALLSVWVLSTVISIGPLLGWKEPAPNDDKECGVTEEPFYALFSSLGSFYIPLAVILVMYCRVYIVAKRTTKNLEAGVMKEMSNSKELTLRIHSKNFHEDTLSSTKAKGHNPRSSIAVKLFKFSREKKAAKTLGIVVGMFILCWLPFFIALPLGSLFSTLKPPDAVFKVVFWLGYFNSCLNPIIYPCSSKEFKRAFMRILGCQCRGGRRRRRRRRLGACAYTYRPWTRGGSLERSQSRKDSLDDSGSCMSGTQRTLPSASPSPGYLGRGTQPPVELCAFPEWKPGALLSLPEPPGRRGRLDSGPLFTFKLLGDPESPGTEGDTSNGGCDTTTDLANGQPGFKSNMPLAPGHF
T3 sequence (P23944 whole entry): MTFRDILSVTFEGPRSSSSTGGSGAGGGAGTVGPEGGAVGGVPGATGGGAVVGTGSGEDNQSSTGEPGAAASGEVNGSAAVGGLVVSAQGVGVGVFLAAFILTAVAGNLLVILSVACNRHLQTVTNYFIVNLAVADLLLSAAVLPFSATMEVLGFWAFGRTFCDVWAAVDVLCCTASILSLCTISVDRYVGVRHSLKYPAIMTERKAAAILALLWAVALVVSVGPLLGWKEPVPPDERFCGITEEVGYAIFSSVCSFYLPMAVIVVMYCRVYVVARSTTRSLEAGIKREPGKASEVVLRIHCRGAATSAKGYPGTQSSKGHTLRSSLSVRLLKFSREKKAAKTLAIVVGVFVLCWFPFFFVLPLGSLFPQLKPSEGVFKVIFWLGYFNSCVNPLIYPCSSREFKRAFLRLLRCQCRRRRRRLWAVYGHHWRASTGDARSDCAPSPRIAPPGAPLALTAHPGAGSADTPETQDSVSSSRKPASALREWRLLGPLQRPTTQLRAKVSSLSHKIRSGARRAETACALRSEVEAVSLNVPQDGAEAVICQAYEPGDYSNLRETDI
T3 sequence (P43140 whole entry): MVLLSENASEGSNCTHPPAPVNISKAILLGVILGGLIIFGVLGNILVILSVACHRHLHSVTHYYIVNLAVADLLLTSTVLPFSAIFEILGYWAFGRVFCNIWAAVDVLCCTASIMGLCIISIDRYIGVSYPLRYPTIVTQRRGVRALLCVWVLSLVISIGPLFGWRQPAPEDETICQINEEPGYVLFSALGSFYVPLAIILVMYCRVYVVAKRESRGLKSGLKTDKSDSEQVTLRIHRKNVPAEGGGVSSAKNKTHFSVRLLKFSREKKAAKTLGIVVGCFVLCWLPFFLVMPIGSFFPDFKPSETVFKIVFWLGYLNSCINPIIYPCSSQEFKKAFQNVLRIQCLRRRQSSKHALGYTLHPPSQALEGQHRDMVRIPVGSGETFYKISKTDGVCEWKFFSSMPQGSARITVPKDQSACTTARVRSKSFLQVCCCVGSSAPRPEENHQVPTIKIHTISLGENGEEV

[7] = molecular target: T4, Sodium-dependent serotonin transporter (Homo sapiens, UniProt P31645); assay: Inhibitory activity of compound against serotonin transport by RB5-5-HT transporter
[8] = molecular target: T4, Sodium-dependent serotonin transporter; assay: Inhibitory activity of compound against serotonin transport by HC5-5-HT transporter
[9] = molecular target: T2, 5-hydroxytryptamine receptor 1A (Homo sapiens); assay: Inhibition of [3H]8-OH-DPAT binding to human 5-hydroxytryptamine 1A receptor at 1000 nM compound concentration
[10] = molecular target: Adrenergic receptor alpha-1 (Homo sapiens) (UniProt P35348+P25100+P35368); assay: Inhibition of [3H]prazosin binding to alpha-1 adrenergic receptor at 100 nM compound concentration; type: protein assay

Chain of Sodium-dependent serotonin transporter (Rattus norvegicus) (P31652 whole entry): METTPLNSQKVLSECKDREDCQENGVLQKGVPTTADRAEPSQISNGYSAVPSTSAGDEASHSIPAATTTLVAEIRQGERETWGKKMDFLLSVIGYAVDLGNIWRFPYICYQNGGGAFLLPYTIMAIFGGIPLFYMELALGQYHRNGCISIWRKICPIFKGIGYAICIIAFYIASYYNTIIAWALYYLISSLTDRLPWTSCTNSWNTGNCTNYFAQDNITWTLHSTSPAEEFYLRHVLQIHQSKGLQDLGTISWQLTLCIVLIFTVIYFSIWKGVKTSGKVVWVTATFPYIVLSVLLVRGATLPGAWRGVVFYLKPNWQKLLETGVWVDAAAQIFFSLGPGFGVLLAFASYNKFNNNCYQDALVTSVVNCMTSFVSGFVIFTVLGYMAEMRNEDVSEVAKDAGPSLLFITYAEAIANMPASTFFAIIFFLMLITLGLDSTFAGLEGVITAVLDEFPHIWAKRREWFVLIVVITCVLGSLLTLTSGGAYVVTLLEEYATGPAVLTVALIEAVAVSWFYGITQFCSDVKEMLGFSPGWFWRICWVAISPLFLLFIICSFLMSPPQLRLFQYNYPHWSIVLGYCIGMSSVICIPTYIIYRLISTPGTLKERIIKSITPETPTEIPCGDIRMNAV
T4 sequence (P31645 whole entry): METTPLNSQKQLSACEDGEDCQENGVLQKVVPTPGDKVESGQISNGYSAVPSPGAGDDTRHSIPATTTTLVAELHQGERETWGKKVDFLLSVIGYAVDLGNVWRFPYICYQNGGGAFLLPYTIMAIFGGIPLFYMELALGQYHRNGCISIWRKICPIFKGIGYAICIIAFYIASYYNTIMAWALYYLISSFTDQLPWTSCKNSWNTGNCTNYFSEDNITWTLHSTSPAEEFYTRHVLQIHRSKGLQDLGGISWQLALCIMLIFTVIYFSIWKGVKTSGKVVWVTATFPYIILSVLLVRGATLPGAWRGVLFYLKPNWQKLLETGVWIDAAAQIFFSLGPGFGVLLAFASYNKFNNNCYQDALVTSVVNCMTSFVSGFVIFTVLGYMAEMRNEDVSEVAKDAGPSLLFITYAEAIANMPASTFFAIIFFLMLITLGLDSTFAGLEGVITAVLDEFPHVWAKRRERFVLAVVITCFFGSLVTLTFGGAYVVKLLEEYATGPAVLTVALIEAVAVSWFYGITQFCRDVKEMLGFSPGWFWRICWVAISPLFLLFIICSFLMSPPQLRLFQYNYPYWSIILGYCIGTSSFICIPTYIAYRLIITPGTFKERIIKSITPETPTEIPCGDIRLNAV

| Compound | IC50 [1] | IC50 [2] | Ki [3] | Imax [4] | inhibition [5] | Ki [6] | Emax [4] | Ki [7] | IC50 [8] | inhibition [9] | inhibition [10] |
| --- | --- | --- | --- | --- | --- | --- | --- | --- | --- | --- | --- |
| COc1cccc2c1O[C@@H](CN1[C@@H]3CC[C@H]1C[C@](O)(c1ccccc1)C3)CO2 | 25 nM | 21 nM | 1.53 nM | 100% | 0% |  |  |  |  |  |  |
| COc1cccc2c1O[C@@H](CN1[C@@H]3CC[C@H]1C[C@](O)(c1ccccn1)C3)CO2 | 1480 nM |  | 46 nM | 100% | 0% |  |  |  |  |  |  |
| CCOc1cccc2c1O[C@@H](CN1[C@@H]3CC[C@H]1C[C@](O)(c1cccc(C(F)(F)F)c1)C3)CO2 |  |  | 2.92 nM |  | 0% | 12.9 nM |  |  |  |  |  |
| COc1cccc2c1O[C@@H](CN1[C@@H]3CC[C@H]1C[C@](O)(c1ccc4ccccc4c1)C3)CO2 | 9.85 nM | 21 nM | 0.81 nM | 100% |  | 42 nM |  |  |  |  |  |
| COc1cccc2c1O[C@@H](CN1[C@@H]3CC[C@H]1C[C@](O)(c1csc4ccccc14)C3)CO2 | 36 nM | 130 nM | 1.6 nM | 92% | 0% | 106 nM | 0% |  |  |  |  |
| COc1cccc2c1O[C@@H](CN1[C@@H]3CC[C@H]1C[C@](O)(c1cccc(C(F)(F)F)c1)C3)CO2 |  |  | 0.33 nM |  | 9% | 9.9 nM | 90% |  |  |  |  |
| COc1ccccc1[C@]1(O)C[C@H]2CC[C@@H](C1)N2C[C@H]1COc2cccc(OC)c2O1 |  |  | 39 nM |  | 12% |  | 40% |  |  |  |  |
| CCOc1cccc2c1O[C@@H](CN1[C@@H]3CC[C@H]1C[C@](O)(c1ccc4ccccc4c1)C3)CO2 |  |  | 5.87 nM |  | 0% | 103.5 nM |  |  |  |  |  |
| CCOc1cccc2c1O[C@@H](CN1[C@@H]3CC[C@H]1C[C@](O)(c1ccccc1)C3)CO2 |  |  | 3.05 nM |  | 0% | 32.7 nM |  |  |  |  |  |
| CCOc1cccc2c1O[C@@H](CN1[C@@H]3CC[C@H]1C[C@](O)(c1ccccn1)C3)CO2 |  |  | 61.6 nM |  | 6% | 147 nM |  |  |  |  |  |
| COc1cccc2c1O[C@@H](CN1C3C=C(c4ccc(Cl)c(Cl)c4)CC1CC3)CO2 (stereo partly drawn) |  |  |  |  |  | > 1000 nM |  | 4.69 nM | 260 nM | 35% |  |
| CCOc1cccc2c1O[C@@H](CN1[C@@H]3CC[C@H]1C[C@](O)(c1csc4ccccc14)C3)CO2 |  |  | 16.7 nM |  | 4% | 123.5 nM |  |  |  |  |  |
| COc1cccc2c1O[C@@H](CN1C3C=C(n4ccc5cc(F)ccc54)CC1CC3)CO2 (stereo partly drawn) |  |  | 128 nM |  |  | 71 nM |  | 8.5 nM | 138 nM |  |  |
| COc1cccc2c1O[C@@H](CN1C3C=C(c4cccc5cccnc45)CC1CC3)CO2 (stereo partly drawn) |  |  | 307 nM |  |  | 46.2 nM |  | 33 nM | 109 nM |  |  |
| COc1cccc2c1O[C@@H](CN1C3C=C(c4cccc5ccccc45)CC1CC3)CO2 (stereo partly drawn) |  |  | 357 nM |  |  |  |  | 26 nM | 951 nM |  | 26% |
| COc1cccc2c1O[C@@H](CN1C3C=C(c4ccc5ccccc5c4)CC1CC3)CO2 (stereo partly drawn) |  |  |  |  |  | 229 nM |  | 1.4 nM | 767 nM | 43% |  |
